Measurements from US20240182495A1, “ANTIBACTERIAL COMPOUNDS” (JANSSEN SCIENCES IRELAND UNLIMITED COMPANY, priority 2021, published 2024).

Tests used:
[1] = Chemical stability testing in DMSO, ACN/H2O, ACN/0.1N HCl, ACN/0.1N NaOH (% by LCMS); type: physicochemical
Procedure: Preliminary Protocol • Add 3 μl of a 10 mM DMSO stock solution to 1 ml of the following solvents in a 1.5 ml HPLC vial. • DMSO (reference solution) • H2O/Acetonitril 1/1 (assay solution) • 0.1N HCl/Acetonitril 1/1 (assay solution) • Mix well, […] LCMS • Compare the chromatograms of the two assay solutions with the reference solution and report the additional peaks as degradation peaks

[2] = test system: Mycobacterium tuberculosis strain (EH4.0, GFP-expressing; Test 2: H37Rv); experiment: MIC determination against M. tuberculosis, Test 1 (and/or Test 2); type: cell-based; conditions: 7 days incubation, fluorescence; for IC50: Mycobacterium tuberculosis, H37RV, 168 h
[3] = physchem; type: physicochemical; conditions: 0.052 mg/mL in SGF with 33.3% ACN; remained so up to 4 hrs

SMILES | chemical stability (% by LCMS) ([1]; 48 h, 30 μM) | chemical stability (% by LCMS) ([1]; 48 h, 30 μM, pH 1.6) | IC50 [2] | chemical stability (% by LCMS) ([1]; 72 h, 30 µM) | chemical stability (% by LCMS) ([1]; 72 h, 30 µM, pH 1.6) | also measured
O=C(NCc1ccc(-c2nc3n(n2)CCN(S(=O)(=O)C(F)(F)F)C3)c(F)c1)c1c(C(F)(F)F)nc2ccccn12 [Compound 6] | 100% | 100% | 83.2 nM |  |  | purity [3]: 99.88%
CCc1nc2cc(OC)c(Cl)cn2c1C(=O)NCc1ccc(-c2nc3n(n2)CCN(S(=O)(=O)C(F)(F)F)C3)c(F)c1 [Compound 10] |  |  | > 500 nM | 97.03% | 100% | 
CCc1nc2nc(N)c(Cl)cn2c1C(=O)NCc1ccc(-c2nc3n(n2)CCN(S(=O)(=O)C(F)(F)F)C3)c(F)c1 [Compound 12] |  |  | 93.3 nM | 96.14% | 97.06% | 
CCc1nc2cc(N)c(Cl)cn2c1C(=O)NCc1ccc(-c2nc3n(n2)CCN(S(=O)(=O)C(F)(F)F)C3)c(F)c1 [Compound 14] |  |  | 105 nM | 100% | 100% | 
CCc1nc2ccc(Cl)cn2c1C(=O)NCc1cnc(-c2nc3n(n2)CCN(S(=O)(=O)C(F)(F)F)C3)c(F)c1 [Compound 15] |  |  | 501 nM | 97.03% | 97.49% | 
CCc1nc2ccc(C)cn2c1C(=O)NCc1ccc(-c2nc3n(n2)CCN(S(=O)(=O)C(F)(F)F)C3)cc1 [Compound 24] | 100% | 100% | 8.91 nM |  |  | chemical stability (% by LCMS) ([1]; 0 h, 30 μM): 100%; chemical stability (% by LCMS) ([1]; 0 h, 30 μM, pH 1.6): 100%; chemical stability (% by LCMS) ([1]; 0 h, 30 μM, pH 9): 89.46%; chemical stability (% by LCMS) ([1]; 48 h, 30 μM, pH 9): 43.8%
Cc1cnc2nc(C3CC3)c(C(=O)NCc3ccc(-c4nc5n(n4)CCN(S(=O)(=O)C(F)(F)F)C5)cc3)n2c1 [Compound 42] | 100% | 100% | 5.01 nM |  |  | 
CCc1nc2ncc(C)cn2c1C(=O)NCc1ccc(-c2cc3n(n2)CCN(S(=O)(=O)C(F)(F)F)C3)cc1 [Compound 44] | 100% | 100% | 2.19 nM |  |  | 
CCc1nc2ncc(C)cn2c1C(=O)NCc1ccc(-c2nc3n(n2)CCN(S(=O)(=O)N2CCCC2)C3)cc1 [Compound 47] | 99% | 100% | 20 nM |  |  | 
CCc1nc2ncc(C)cn2c1C(=O)NCCc1ccc(-c2nc3n(n2)CCN(S(=O)(=O)C(F)(F)F)C3)cc1 [Compound 66] |  |  |  |  |  | chemical stability (% by LCMS) ([1]; ACN/0.1N HCl (pH 1.6; 48 hr, rt)): 98%; chemical stability (% by LCMS) ([1]; ACN/H2O (48 hr, rt)): 98%; chemical stability (% by LCMS) ([1]; DMSO (0 hr, rt)): 91%; pIC50 [2]: 6.57
CCc1nc2ccc(C)cn2c1C(=O)NCc1ccc(-c2cc3n(n2)CCN(S(=O)(=O)C(F)(F)F)C3)cc1 [Compound 81] | 100% | 100% | 20.4 nM |  |  | chemical stability (% by LCMS) ([1]; 0 h, 30 μM): 95%
